Where “and” joins values, the source holds several entries; their conditions need not be identical. Equal entries are not always repeated. Inconclusive results and toxic doses are left out.
Test system: CD2F1 mice, L1210 leukemia ip, survival T/C
Assay: NCI In Vivo Anticancer Drug Screen. Data for tumor model L1210 Leukemia (intraperitoneal) in CD2F1 (CDF1) mice
Details: endpoint: mean survival time, higher = longer survival
Outline: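 Each value reflects a quotient of treated over vehicle control outcomes in mice with a transplanted tumor.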

[1] = dose: 100.0 mg/kg/injection, schedule: Q04DX003 (ip), vehicle: saline with Tween-80
[2] = dose: 200.0 mg/kg/injection, schedule: Q04DX003 (ip), vehicle: saline with Tween-80
[3] = dose: 400.0 mg/kg/injection, schedule: Q04DX003 (ip), vehicle: saline with Tween-80
[4] = dose: 100.0 mg/kg/injection, schedule: Q04DX002 (ip), vehicle: saline with Tween-80
[5] = dose: 200.0 mg/kg/injection, schedule: Q04DX002 (ip), vehicle: saline with Tween-80
[6] = dose: 25.0 mg/kg/injection, schedule: Q01DX009 (ip), vehicle: saline
[7] = dose: 50.0 mg/kg/injection, schedule: Q01DX009 (ip), vehicle: saline
[8] = dose: 100.0 mg/kg/injection, schedule: Q01DX009 (ip), vehicle: saline
[9] = dose: 200.0 mg/kg/injection, schedule: Q01DX009 (ip), vehicle: saline
[10] = dose: 100.0 mg/kg/injection, schedule: Q04DX003 (ip), vehicle: saline

For O=C([O][Sb]([O]C(=O)C(Br)Br)([c]1ccccc1)([c]1ccccc1)[c]1ccccc1)C(Br)Br, the T/C [1] was 95 % of control, the T/C [2] was 89 % of control and the T/C [3] was 95 % of control.
In the case of NC(=O)C1(C(N)=O)CCCCC1, the T/C (dose: 50.0 mg/kg/injection, schedule: Q04DX002 (ip), vehicle: saline with Tween-80) is reported as 100 % of control, the T/C [4] is reported as 112 % of control and the T/C [5] is reported as 100 % of control.
With Cc1ccc(N=C(C(=Nc2ccc(C)cc2)c2ccccc2)c2ccccc2)cc1 the T/C (dose: 200.0 mg/kg/injection, schedule: Q01DX009 (ip), vehicle: saline with Tween-80) was 101 % of control and the T/C (dose: 400.0 mg/kg/injection, schedule: Q01DX009 (ip), vehicle: saline with Tween-80) was 92 % of control.
C[n+]1ccc(Cc2ccccc2)cc1 was tested, and the T/C (dose: 12.5 mg/kg/injection, schedule: Q04DX002 (ip), vehicle: saline) was 104 % of control, the T/C (dose: 25.0 mg/kg/injection, schedule: Q04DX002 (ip), vehicle: saline) was 96 % of control and the T/C (dose: 50.0 mg/kg/injection, schedule: Q04DX002 (ip), vehicle: saline) was 102 % of control.
CCCCCCCCCCCCCC(=O)O.[Pb] was tested, and the T/C (dose: 75.0 mg/kg/injection, schedule: Q01DX001 (ip), vehicle: other) was 98 % of control, the T/C (dose: 150.0 mg/kg/injection, schedule: Q01DX001 (ip), vehicle: other) was 101 % of control and the T/C (dose: 300.0 mg/kg/injection, schedule: Q01DX001 (ip), vehicle: other) was 101 % of control.
C=C(Cl)CSCCS was tested, and the T/C (dose: 50.0 mg/kg/injection, schedule: Q01DX009 (ip), vehicle: acetone) was 101 % of control and the T/C (dose: 100.0 mg/kg/injection, schedule: Q01DX009 (ip), vehicle: acetone) was 103 % of control.
For Cc1ccccc1NC(=O)CN(C)C, the T/C (dose: 100.0 mg/kg/injection, schedule: Q01DX001 (ip), vehicle: other) was 98 % of control and the T/C (dose: 200.0 mg/kg/injection, schedule: Q01DX001 (ip), vehicle: other) was 103 % of control.
CCC(C)(S)C(NC(C)=O)C(=O)O (centres undefined) was tested, and the T/C [1] was 98 % of control, the T/C [2] was 101 % of control and the T/C [3] was 104 % of control.
With CC([NH-])CC(C)[NH-].[Cl][Pt+2][Cl] (centres undefined) the T/C (dose: 3.12 mg/kg/injection, schedule: Q04DX003 (ip), vehicle: saline with Tween-80) was 122 % of control, the T/C (dose: 6.25 mg/kg/injection, schedule: Q04DX003 (ip), vehicle: saline with Tween-80) was 162 % of control and 168 % of control and the T/C (dose: 25.0 mg/kg/injection, schedule: Q04DX003 (ip), vehicle: saline with Tween-80) was 92 % of control.
For O=C1C2C3CCC(O3)C2C(=O)N1CC#CCN1C(=O)C2C3CCC(O3)C2C1=O (centres undefined), the T/C [4] was 98 % of control, the T/C [5] was 98 % of control and the T/C (dose: 400.0 mg/kg/injection, schedule: Q04DX002 (ip), vehicle: saline with Tween-80) was 90 % of control.
For CC(=O)NCCCCCCNC(C)=O, the T/C [6] was 96 % of control, the T/C [7] was 100 % of control and the T/C [8] was 100 % of control. For the same compound, the T/C [9] was 94 % of control, the T/C (dose: 400.0 mg/kg/injection, schedule: Q01DX009 (ip), vehicle: saline) was 100 % of control and the T/C (dose: 800.0 mg/kg/injection, schedule: Q01DX009 (ip), vehicle: saline) was 93 % of control.
With O=C(NO)c1ccccc1 the T/C [6] was 96 % of control, the T/C [7] was 94 % of control and the T/C (dose: 100.0 mg/kg/injection, schedule: Q01DX001 (ip), vehicle: saline with Tween-80) was 110 % of control. The T/C (dose: 100.0 mg/kg/injection, schedule: Q01DX009 (ip), vehicle: saline sonified) was 103 % of control, the T/C [8] was 98 % of control and 109 % of control and the T/C [1] was 98 % of control. The T/C (dose: 200.0 mg/kg/injection, schedule: Q01DX001 (ip), vehicle: saline with Tween-80) was 103 % of control, the T/C (dose: 200.0 mg/kg/injection, schedule: Q01DX009 (ip), vehicle: saline sonified) was 115 % of control and the T/C [9] was 121 % of control and 102 % of control. For the same compound, the T/C [2] was 96 % of control, the T/C (dose: 400.0 mg/kg/injection, schedule: Q01DX001 (ip), vehicle: saline with Tween-80) was 117 % of control and the T/C [3] was 116 % of control.
In the case of CSc1nnnn1-c1ccccc1, the T/C (dose: 50.0 mg/kg/injection, schedule: Q01DX009 (ip), vehicle: Klucel (hydroxypropylcellulose) (HPC)) is reported as 111 % of control and the T/C (dose: 100.0 mg/kg/injection, schedule: Q01DX009 (ip), vehicle: Klucel (hydroxypropylcellulose) (HPC)) is reported as 104 % of control.
For CN1C(=S)[N+](C)(C)N=C1[O-], the T/C [7] was 107 % of control, the T/C [8] was 108 % of control and the T/C [10] was 100 % of control. For the same compound, the T/C [9] was 113 % of control, the T/C (dose: 200.0 mg/kg/injection, schedule: Q04DX003 (ip), vehicle: saline) was 105 % of control and the T/C (dose: 400.0 mg/kg/injection, schedule: Q04DX003 (ip), vehicle: saline) was 101 % of control.
[O]=[Mo] was tested, and the T/C [10] was 107 % of control.
For Clc1nc2n[nH]nc2nc1Cl, the T/C (dose: 3.13 mg/kg/injection, schedule: Q01DX009 (ip), vehicle: saline) was 97 % of control, the T/C (dose: 6.25 mg/kg/injection, schedule: Q01DX009 (ip), vehicle: saline) was 100 % of control and the T/C (dose: 12.5 mg/kg/injection, schedule: Q01DX009 (ip), vehicle: saline) was 95 % of control.
With Nc1cc2[nH]cnc2c([Se])n1 the T/C [1] was 101 % of control and the T/C [2] was 107 % of control.
Cc1cc(F)ccc1NC(=O)OC(C)C was tested, and the T/C [1] was 101 % of control, the T/C [2] was 92 % of control and the T/C [3] was 104 % of control.
With Cc1nc(N)[nH]c(=O)c1CCS the T/C (dose: 100.0 mg/kg/injection, schedule: Q01DX001 (ip), vehicle: saline) was 97 % of control and the T/C (dose: 200.0 mg/kg/injection, schedule: Q01DX001 (ip), vehicle: saline) was 100 % of control.

— PubChem BioAssay AID256 (DTP/NCI, 2004)
